# Data taken from patent US20100323456A1 (priority 2006, published 2010).
# Where “and” joins values, the source holds several entries; their conditions need not be identical. Identical values can stand only once. Entries after “also recorded” stand apart in the source; their conditions may differ. Like-named read-outs stand apart in the source and are kept apart here. Non-standard residues stand in square brackets, D forms with d. Residues, ends and D or L forms follow the SMILES beside them.
# How the values were obtained:
# [1] = system: G-proteins coupled to opioid and ET receptors; assay: [35S]GTPγS binding assay (G-protein stimulation) in neuronal membranes of neonatal rat brain, placebo and morphine withdrawal groups; assay type: biochemical; details: for Effect on [35S]GTPγS binding: brain of neonatal rats; for Effect on GTP binding: morphine withdrawal group compared to placebo; for Maximal stimulation of [35S]GTPγS binding / EC50: neonatal rat brain; for Maximal stimulation of [35S]GTPγS binding: 0.98 to 1000 nM; for EC50: read-out: EC50 for stimulated [35S]GTPγS binding
# ET receptors = details: co-administration with morphine; cited from earlier work
# central ET receptors = details: intracerebroventricular administration; cited from earlier work
Structure (SMILES),Effect on [35S]GTPγS binding [1],Effect on GTP binding [1],Maximal stimulation of [35S]GTPγS binding ([1]; morphine withdrawal group),EC50 ([1]; morphine withdrawal group),Effect on G-protein stimulation / GTP binding ([1]; placebo (normal) group),Maximal stimulation of [35S]GTPγS binding ([1]; placebo group),EC50 ([1]; placebo group) [nM],Effect on morphine-induced analgesia and hyperthermia (ET receptors),Effect on mean arterial blood pressure (BP) (central ET receptors)
Cc1noc(NS(=O)(=O)c2cccc3c(N(C)C)cccc23)c1C [BMS182874],concentration-dependent increase,significantly increased GTP binding,86.07%,31.2 nM and 33.2 nM,did not affect GTP binding; also recorded: did not stimulate G-proteins,6.71±1.51%,> 1000,–,–
CC(C)C[C@@H]1NC(=O)[C@@H](C(C)C)NC(=O)[C@@H]2CCCN2C(=O)[C@@H](CC(=O)O)NC(=O)[C@@H](Cc2c[nH]c3ccccc23)NC1=O [BQ123] (cyclo(L[dW][dD]P[dV])),–,–,–,–,–,–,–,potentiate morphine-induced analgesia and hyperthermia without affecting catalepsy,–
CC[C@H](C)[C@H](NC(=O)[C@H](CC(=O)O)NC(=O)[C@H](CC(C)C)NC(=O)[C@H](Cc1c[nH]cn1)NC(=O)[C@@H]1CSSC[C@H](N)C(=O)N[C@@H](CO)C(=O)N[C@H]2CSSC[C@H](NC(=O)[C@H](CCC(=O)O)NC(=O)[C@H](CCCCN)NC(=O)[C@H](CC(=O)O)NC(=O)[C@H](CCSC)NC(=O)[C@H](CC(C)C)NC(=O)[C@H](CO)NC(=O)[C@H](CO)NC2=O)C(=O)N[C@@H](C(C)C)C(=O)N[C@@H](Cc2ccc(O)cc2)C(=O)N[C@@H](Cc2ccccc2)C(=O)N1)C(=O)N[C@H](C(=O)N[C@@H](Cc1c[nH]c2ccccc12)C(=O)O)[C@@H](C)CC [ET-1],concentration-dependent increase,lower; also recorded: attenuated,87.16±4.83%,171 nM,–,74.88±1.50%,20.66 ± 0.12,–,transient rise followed by sustained fall
CN1CC[C@]23c4c5ccc(O)c4O[C@H]2[C@@H](O)C=C[C@H]3[C@H]1C5 [Morphine],concentration-dependent increase,higher,83.60% and 83.60±5.77%,–,–,66.81% and 66.31±1.51%,–,–,–
